In data set [1] the test system is Gram-positive bacteria. Conditions: background statement; cited from earlier work.
Data set [2] is described as follows: Solubility observed on preparing formulations. The class given is physicochemical. The conditions noted are these: pH 5.5 versus pH 5.0.
For data set [3] the following is noted: 21 °C and standard pressure; cited from earlier work.

These results are taken from patent publication US20260335229A1, “NOVEL COMPOSITIONS” (priority 2025, published 2026).

Structures can show the parent of a compound that is named as a salt.

Consider `CN[C@H]1C(=O)N[C@@H]2Cc3ccc(cc3)Oc3cc4cc(c3O[C@@H]3O[C@H](C(=O)O)[C@@H](O)[C@H](O)[C@H]3NC(=O)CCCCCCCCC(C)C)Oc3ccc(cc3Cl)[C@@H](O)[C@@H]3NC(=O)[C@H](NC(=O)[C@@H]4NC(=O)[C@@H](NC2=O)c2cc(cc(O)c2Cl)Oc2cc1ccc2O)c1ccc(O)c(c1)-c1c(O[C@H]2O[C@H](CO)[C@@H](O)[C@H](O)[C@@H]2O)cc(O)cc1[C@@H](C(=O)NCCCN(C)C)NC3=O` [Dalbavancin], for which the Antibiotic activity result in data set [1] is listed as “strong antibiotic activity”.

On to `CN[C@H]1C(=O)N[C@@H]2Cc3ccc(cc3)Oc3cc4cc(c3O[C@@H]3O[C@H](C(=O)O)[C@@H](O)[C@H](O)[C@H]3NC(=O)CCCCCCCCC(C)C)Oc3ccc(cc3Cl)[C@@H](O)[C@@H]3NC(=O)[C@H](NC(=O)[C@@H]4NC(=O)[C@@H](NC2=O)c2cc(cc(O)c2Cl)Oc2cc1ccc2O)c1ccc(O)c(c1)-c1c(O[C@H]2O[C@H](CO)[C@@H](O)[C@H](O)[C@@H]2O)cc(O)cc1[C@@H](C(=O)NCCCN(C)C)NC3=O` [dalbavancin hydrochloride], for which the Solubility entry in data set [2] was “reduced solubility”.

In general, pKa refers to the pH at which an ionisable group is half protonated. Regarding `CC(O)C(=O)O` (stereo not drawn) [lactic acid], in data set [3], the pKa was 3.7.
